One compound from patent US20240307415A1, “STEROID COMPOUND, AND PHARMACEUTICAL COMPOSITION THEREOF AND USE THEREOF” (JIANGSU SIMCERE PHARMACEUTICAL CO., LTD., priority 2021, published 2024) can be followed below.

A short description of data set [1]: Plasma protein binding rate, human plasma (equilibrium dialysis). The class given is in vitro ADME. Particulars: pH 7.4, equilibrium dialysis 6 h, 37° C. On the procedure: The protein binding rates of the compound of the present invention in plasma of 5 species (humans, monkeys, dogs, rats, and mice) were determined using the following method.
• 1. Human plasma (BioIVT), monkey plasma (ADME-plasma-pooled monkey-05212020), beagle dog plasma (BioIVT), SD rat plasma (BioIVT), and CD-1 mouse plasma (BioIVT) • 2. Na2HPO4 (Sigma S5136-500G) • 3. NaH2PO4 (Sigma S3139-500G) • 4. NaCl (Sigma S5886-IKG) • 5. 96-well equilibrium dialysis plate (HTDialysis LLC, Gales Ferry, CT, HTD96B) and equilibrium dialysis membrane (MWCO 12-14K, 1101) • 6. Positive control compound warfarin • 7. ABI QTrap 5500 liquid chromatography-mass spectrometry system
• 1. […] Preparation of a dialysis membrane: the dialysis membrane was soaked in ultrapure water for 60 min to separate the membrane into two pieces, then soaked with 20% ethanol for 20 min, and finally soaked with dialysis buffer for 20 min. • 3. Preparation of plasma: the frozen plasma was quickly thawed at room temperature and then centrifuged at 3,220 g at 4° C. for 10 min to remove clots, and the supernatant was collected to a new centrifuge tube. The pH of the plasma was measured and recorded. The plasma with pH 7-8 was used. • 4. […]
The peak areas of the compound on the buffer side and the plasma side were measured. The plasma protein binding rate of the compound was calculated by the following formula: […]
(In equilibrium dialysis only unbound substance equilibrates across the membrane.)

The next data set concerns the target CYP2C9 (Homo sapiens (Human), UniProt P11712). Description: Inhibition of CYP2C9 enzymatic activity in human liver microsomes. It is filed as in vitro ADME. The settings on record: human liver microsome, substrate diclofenac, 5 min. The method, then: The inhibition of CYP2C9 and CYP2D6 activity by the compound of the present invention was determined using the following method.
• 1. Human liver microsome (Corning 452117) • 2. NADPH (Solarbio 705Y021) • 3. Positive substrates diclofenac (Sigma SLBV3438) and dextromethorphan (TRC 3-EDO-175-1) • 4. Positive inhibitors sulfaphenazole (D. Ehrenstorfer GmbH 109012) and quinidine (TCI WEODL-RE) • 5. AB Sciex Triple Quad 5500 liquid chromatography-mass spectrometry system
• 1. Preparation of 100 mM phosphate-buffered saline (PBS): 7.098 g Na2HPO4 was weighed. 500 mL pure water was added. The mixture was dissolved by sonication to give solution A. 3.400 g KH2PO4 was weighed. 250 mL pure water was added. The mixture was dissolved by sonication to give solution B. The solution A was placed in a stirrer, and the solution B was slowly added until the pH reached 7.4, so that the 100 mM PBS buffer was prepared. • 2. A 10 mM NADPH solution was prepared with a 100 mM PBS buffer. A 10 mM stock solution of the compound of the present invention was diluted with DMSO to give a compound working solution at a concentration of 200×(6000, 2000, 600, 200, 60, 20, and 0 μM). […]
The reduction of metabolite production in the treatment groups versus the control group was compared by the peak area ratios of the sample to the internal standard, and the IC50 value was calculated using Excel XLfit 5.3.1.3.

Sequence of CYP2C9 (P11712 whole entry): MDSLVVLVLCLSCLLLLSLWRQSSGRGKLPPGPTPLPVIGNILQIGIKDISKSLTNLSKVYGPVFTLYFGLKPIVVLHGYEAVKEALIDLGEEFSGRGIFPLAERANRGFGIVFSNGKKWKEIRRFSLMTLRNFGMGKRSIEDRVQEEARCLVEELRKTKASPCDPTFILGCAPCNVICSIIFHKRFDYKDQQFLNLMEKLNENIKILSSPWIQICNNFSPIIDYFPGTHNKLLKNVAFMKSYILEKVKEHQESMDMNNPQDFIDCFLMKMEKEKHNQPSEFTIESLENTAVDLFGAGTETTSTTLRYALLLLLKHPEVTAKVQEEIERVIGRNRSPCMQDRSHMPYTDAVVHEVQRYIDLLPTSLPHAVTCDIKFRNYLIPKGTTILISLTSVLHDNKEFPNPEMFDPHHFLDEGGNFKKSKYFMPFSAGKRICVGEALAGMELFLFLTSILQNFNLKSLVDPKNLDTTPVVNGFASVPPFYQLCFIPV

As to `C[C@]12C=CC(=O)C=C1CC[C@@H]1[C@@H]2[C@@H](O)C[C@@]2(C)[C@H]1C[C@H]1O[C@@H](c3ccc(Cc4cc(N)c5c(c4)CCO5)cc3)O[C@]12C(=O)CO` [Compound 009, (6aR,6bS,7S,8aS,8bS,10R,11aR,12aS,12bS)-10-(4-((7-amino-2,3-dihydrobenzofuran-5-yl)methyl)phenyl)-7-hydroxy-8b-(2-hydroxyacetyl)-6a,8a-dimethyl-6a,6b,7,8,8a,8b,11a,12,12a,12b-decahydro-1H-naphtho[2′,1′:4,5]indeno[1,2-d][1,3]dioxolan-4(2H)-one], the fraction unbound at 6 h, 1 μM in data set [1] was 0.002. The compound also displayed an IC50 at CYP2C9 of 7.2 µM.

A word on the fraction unbound: it is free concentration divided by total concentration. In general, IC50 refers to the midpoint of a concentration-inhibition curve.
